Measured values taken from patent publication US8497269B2, “Phthalazine compounds as p38 map kinase modulators and methods of use thereof” (Amgen Inc., priority 2008, dated 2013).

What was measured:
human p38α = human p38α (Homo sapiens, UniProt Q16539); assay: Purified and activated recombinant human p38α assay (HTRF); format: biochemical; conditions: 1 nM p38α, 50 μM ATP, 100 nM GST-ATF2-Avitag, 1 hour at RT, read-out: p38a IC50 IC50
Procedure: Purified and Activated Recombinant Human p38α Assay
Kinase Reaction Buffer: Kinase reaction buffer for p38α HTRF assays consists of 50 mM Tris-pH 7.5, 5 mM MgCl2, 0.1 mg/mL BSA, 100 μM Na3VO4 and 0.5 mM DTT.
HTRF Detection Buffer: HTRF detection buffer contains 100 mM HEPES-pH 7.5, 100 mM NaCl, 0.1% BSA, 0.05% Tween-20, and 10 mM EDTA.
Serial Dilution of Compounds: Compounds were dissolved in 100% DMSO and serially diluted (3 fold, 10 point) in a polypropylene 96-well microtiter plate (drug plate). The final starting concentration of compounds in the p38α enzymatic assays was 1 μM. Columns 6 and 12 (HI controls and LO controls respectively) in the drug plate were reserved as controls and contained only DMSO. Kinase Reaction: The p38α kinase reactions were carried out in a polypropylene 96-well black round bottom assay plate in total volume of 30 μL kinase reaction buffer. Appropriate concentration of purified and activated enzyme (recombinant human) was mixed with indicated concentration of ATP and 100 nM GST-ATF2-Avitag, in the presence or absence (HI control) of Compound. See table below for actual concentrations. In the absence of substrate, the background was measured as LO control. The reaction was allowed to incubate for 1 hour at RT. Assay Reagent Concentrations: The final reagent concentrations were 1 nM p38α and 50 μM ATP. […] After 60 minutes incubation at room temperature, the assay plate was read in a Discovery Plate Reader. The wells were excited with coherent 320 nm light and the ratio of delayed ([…] post excitation) emissions at […] (native europium fluorescence) and 665 nm (europium fluorescence transferred to allophycocyanin—an index of substrate phosphorylation) was determined (Park et al, 1999). Data Analysis: The proportion of substrate phosphorylated in the kinase reaction in the presence of compound compared with that phosphorylated in the presence of DMSO vehicle alone (HI control) was calculated using the formula: % control (POC)=(compound−average LO)/(average HI−average LO)*100. Data (consisting of POC and inhibitor concentration in μM) was fitted to a 4-parameter equation (y=A+((B−A)/(1+((x/C)^D))), where A is the minimum y (POC) value, B is the maximum y (POC), C is the x (compound concentration) at the point of inflection and D is the slope factor, using a Levenburg-Marquardt non-linear regression algorithm.
The inhibition constant (Ki) of the inhibitor was estimated from the IC50 (compound concentration at the point of inflection C) using the Cheng-Prussof equation: Ki=IC50/(1+S/Km), where S is the ATP substrate concentration, and Km is the Michaelis constant for ATP as determined experimentally. All results were expressed as the mean±the standard error of the mean. Data acquisition and non-linear regression algorithms were performed using Activity Base v5.2 and XL-fit software v4.1 respectively. All data was archived using Activity Base v5.2 software.

[1] = test system: TNF-α induced IL-8 production in human whole blood; assay: Inhibition of TNF-α induced IL-8 in 50% human whole blood; format: cell-based; conditions: 1 nM TNF-α, secreted IL-8, 16-18 hours, read-out: WB TNF/IL8 IC50
Procedure: Inhibition of TNF-α Induced IL-8 in 50% Human Whole Blood
Test compounds were evaluated in vitro for the ability to inhibit the production of secreted IL-8 by whole blood activated with TNF-α. Fresh human whole blood was obtained from healthy, non-medicated volunteers in sodium heparin tubes.
Compound Dilution—Assay Procedure
Test compounds are serially diluted 1:3 in DMSO and then diluted 1:250 into R10 (RPMI 1640, 10% human serum AB, 1× pen/strep/glutamine) to the 4× working concentration to be used in the assay. 100 ul heparinized whole blood is plated into wells of 96 well flat bottom plates. 50 ul of either 4× compound or DMSO control (Final DMSO concentration is 0.1%) are added to the appropriate wells. Plates are incubated for 1 hour at 37 degrees Celsius. 50 ul of 4×TNF-α (4 nM TNF-α, for a final concentration of 1 nM) or control (media alone) is added to the appropriate wells (Total volume=200 ul). Plates are incubated overnight (16-18 hours). 100 ul of supernatant is collected and stored in 96-well round bottom polypropylene plates at −80 degrees Celsius or assayed immediately for IL-8.
Cytokines are measured on antibody (Ab) sandwich ECL based 96-well detection plates. 20 ul of supernatant are added to plate and plate is sealed and shaken at RT for 1 hour. 130 ul of detection Ab cocktail is added and plates are sealed and shaken for 1 hour in the dark at RT. Plates are read on MSD Sector HTS instrument. Data are analyzed and IC50 values generated using Activity Base and Xl-fit programs.

human p38α, sequence (Q16539 whole entry): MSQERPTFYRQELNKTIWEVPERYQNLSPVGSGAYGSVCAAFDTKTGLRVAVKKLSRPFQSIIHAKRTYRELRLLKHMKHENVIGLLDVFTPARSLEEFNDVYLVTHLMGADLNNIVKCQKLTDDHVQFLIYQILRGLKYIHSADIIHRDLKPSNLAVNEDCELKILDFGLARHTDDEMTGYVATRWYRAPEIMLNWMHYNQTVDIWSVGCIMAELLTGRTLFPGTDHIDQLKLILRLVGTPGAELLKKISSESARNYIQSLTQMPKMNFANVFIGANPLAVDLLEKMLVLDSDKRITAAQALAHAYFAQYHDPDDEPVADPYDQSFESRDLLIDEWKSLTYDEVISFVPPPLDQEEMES

| Structure (SMILES) | IC50 (human p38α) | IC50 [1] |
| --- | --- | --- |
| Cc1cccc(Nc2ccc3c(-c4ccc(F)cc4C)nncc3c2)c1 [Example 19, 1-(4-fluoro-2-methylphenyl)-N-(3-methylphenyl)-6-phthalazinamine] | 0.3 nM | 2.2 nM |
| Cc1cc(F)ccc1-c1nncc2cc(Nc3cccc(F)c3C)ccc12 [Example 18, N-(3-fluoro-2-methylphenyl)-1-(4-fluoro-2-methylphenyl)-6-phthalazinamine] | 0.3 nM | 1.8 nM |
| Cc1cc(S(C)(=O)=O)c(Cl)cc1-c1nncc2cc(Nc3ccc(F)cc3F)ccc12 [Example 26, 1-(5-chloro-2-methyl-4-(methylsulfonyl)phenyl)-N-(2,4-difluorophenyl)-6-phthalazinamine] | 0.7 nM | 4.2 nM |
| COc1ncccc1-c1nncc2cc(Nc3ccc(F)cc3)ccc12 [Example 28, N-(4-fluorophenyl)-1-(2-(methyloxy)-3-pyridinyl)-6-phthalazinamine] | 0.9 nM | 1.6 nM |
| CC(Oc1nncc2cc(Nc3ccc(F)cc3F)ccc12)C(F)(F)F (racemic) [Example 6, N-(2,4-Difluorophenyl)-1-(1,1,1-trifluoropropan-2-yloxy)phthalazin-6-amine] | 3.1 nM | 37 nM |
| Cn1nccc1-c1nncc2cc(Nc3ccc(F)cc3)ccc12 [Example 32, N-(4-fluorophenyl)-1-(1-methyl-1H-pyrazol-5-yl)-6-phthalazinamine] | 1 nM | 4.9 nM |
| Cc1ccccc1-c1nncc2cc(Nc3ccccc3)ccc12 [Example 9, 1-(2-methylphenyl)-N-phenyl-6-phthalazinamine] | 0.2 nM | 1.5 nM |
